# Measured values from US6596721B2, “Stable crystalline (6R) -tetrahydrofolic acid” (Eprova AG, priority 1994, dated 2003).
# Experiment: Stability on storage under severe conditions at 60° C. in the air (remaining tetrahydrofolic acid content by HPLC, colour)
# Type: physicochemical
# Conditions: for Colour / discoloration: after a prolonged test period at 60° C. in the air
# Description: The tetrahydrofolic acid contents and the isomer contents given in the following examples were in each case determined by HPLC. All tetrahydrofolic acid contents are based on the anhydrous substance.
# To determine the stability of crystalline (6S)- and (6R)-tetrahydrofolic acid, the substances together with comparison samples were stored under severe conditions at 60° C. in the air. The remaining tetrahydrofolic acid content was measured at periodic intervals and is shown in comparison with the initial value.
# In contrast, the other products which are included for comparison reasons discolor rapidly to a high degree.
# The substances employed for the stability tests were prepared as follows:
# crystalline (6S)-tetrahydrofolic acid as in Example 6 of the present patent application crystalline (6R)-tetrahydrofolic acid as in Example 9 of the present patent application “Yamanouchi's crystalline (6R,S)-tetrahydrofolic acid” as in DE-OS 2 323 124, Example 3
# amorphous (6S)-tetrahydrofolic acid (6S)-tetrahydrofolic acid is dissolved in acetic acid and precipitated using diethyl ether
# amorphous (6R)-tetrahydrofolic acid (6R)-tetrahydrofolic acid is dissolved in acetic acid and precipitated using diethyl ether
# amorphous (6R,S)-tetrahydrofolic acid (6R,S)-tetrahydrofolic acid is dissolved in acetic acid and precipitated using diethyl ether.
# [1] = 0 days (initial value), 60° C. in air
Remaining tetrahydrofolic acid content in comparison with the initial value [1] [%],Remaining tetrahydrofolic acid content in comparison with the initial value (2 days at 60° C. in air) [%],Remaining tetrahydrofolic acid content in comparison with the initial value (13 days at 60° C. in air) [%],Remaining tetrahydrofolic acid content in comparison with the initial value (21 days at 60° C. in air) [%],Remaining tetrahydrofolic acid content in comparison with the initial value (0 h) [%],Remaining tetrahydrofolic acid content in comparison with the initial value (48 h) [%],Remaining tetrahydrofolic acid content in comparison with the initial value (144 h) [%],Remaining tetrahydrofolic acid content in comparison with the initial value (312 h) [%],Remaining tetrahydrofolic acid content in comparison with the initial value (504 h) [%],Remaining tetrahydrofolic acid content in comparison with the initial value (1368 h) [%],Colour / discoloration,Remaining tetrahydrofolic acid content in comparison with the initial value (6 days at 60° C. in air) [%],Remaining tetrahydrofolic acid content in comparison with the initial value (28 days at 60° C. in air) [%],Remaining tetrahydrofolic acid content in comparison with the initial value (57 days at 60° C. in air) [%],Remaining tetrahydrofolic acid content in comparison with the initial value (360 days at 60° C. in air) [%],SMILES
100.0,53.4,17.4,13.2,,,,,,,,,,,,"Nc1nc2c(c(=O)[nH]1)N[C@H](CNc1ccc(C(=O)N[C@@H](CCC(=O)O)C(=O)O)cc1)CN2 (mixture of isomers) [amorphous (6R,S)-tetrahydrofolic acid, (6R,S)-tetrahydrofolic acid]"
100.0,100.1,98.7,103.6,,,,,,,"remain very pale, almost white",102.5,103.1,101.2,93.3,"Nc1nc2c(c(=O)[nH]1)N[C@@H](CNc1ccc(C(=O)N[C@@H](CCC(=O)O)C(=O)O)cc1)CN2 [Crystalline (6S)-tetrahydrofolic acid, (6S)-tetrahydrofolic acid]"

# Further lines, the molecule ahead of its results:
SMILES,Remaining tetrahydrofolic acid content in comparison with the initial value [1] [%],Remaining tetrahydrofolic acid content in comparison with the initial value (2 days at 60° C. in air) [%],Remaining tetrahydrofolic acid content in comparison with the initial value (13 days at 60° C. in air) [%],Remaining tetrahydrofolic acid content in comparison with the initial value (21 days at 60° C. in air) [%],Remaining tetrahydrofolic acid content in comparison with the initial value (0 h) [%],Remaining tetrahydrofolic acid content in comparison with the initial value (48 h) [%],Remaining tetrahydrofolic acid content in comparison with the initial value (144 h) [%],Remaining tetrahydrofolic acid content in comparison with the initial value (312 h) [%],Remaining tetrahydrofolic acid content in comparison with the initial value (504 h) [%],Remaining tetrahydrofolic acid content in comparison with the initial value (1368 h) [%],Colour / discoloration,Remaining tetrahydrofolic acid content in comparison with the initial value (6 days at 60° C. in air) [%],Remaining tetrahydrofolic acid content in comparison with the initial value (28 days at 60° C. in air) [%],Remaining tetrahydrofolic acid content in comparison with the initial value (57 days at 60° C. in air) [%],Remaining tetrahydrofolic acid content in comparison with the initial value (360 days at 60° C. in air) [%]
"Nc1nc2c(c(=O)[nH]1)N[C@@H](CNc1ccc(C(=O)N[C@@H](CCC(=O)O)C(=O)O)cc1)CN2 [Amorphous (6S)-tetrahydrofolic acid, (6S)-tetrahydrofolic acid]",100.0,60.4,13.7,7.9,,,,,,,,,,,
"Nc1nc(=O)c2c([nH]1)NC[C@@H](CNc1ccc(C(=O)N[C@@H](CCC(=O)O)C(=O)O)cc1)N2 [Crystalline (6R)-tetrahydrofolic acid, N-[4-[[(2-amino-1,4,5,6,7,8-hexahydro-4-oxo-(6R)-pteridinyl)methyl]amino]benzoyl]-Lglutamic acid]",,,,,100.0,96.4,96.1,93.3,92.7,82.0,"remain very pale, almost white",,,,
"Nc1nc2c(c(=O)[nH]1)N[C@H](CNc1ccc(C(=O)N[C@@H](CCC(=O)O)C(=O)O)cc1)CN2 [Yamanouchi's crystalline (6R,S)-tetrahydrofolic acid]",100.0,83.6,48.6,31.0,,,,,,,,,,13.4,
"Nc1nc2c(c(=O)[nH]1)N[C@H](CNc1ccc(C(=O)N[C@@H](CCC(=O)O)C(=O)O)cc1)CN2 [amorphous (6R)-tetrahydrofolic acid, (6R)-tetrahydrofolic acid]",100.0,70.5,29.1,21.6,,,,,,,,,,9.8,
